# From US11802120B2, “Fused cyclic urea derivatives as CRHR2 antagonist” (RaQualia Pharma Inc., priority 2018, dated 2023)
# pIC50: −log10 of the molar value.
# Molecular target: T1, human CRHR2-alpha (Homo sapiens, UniProt Q13324)
# T1 sequence (Q13324 1-411): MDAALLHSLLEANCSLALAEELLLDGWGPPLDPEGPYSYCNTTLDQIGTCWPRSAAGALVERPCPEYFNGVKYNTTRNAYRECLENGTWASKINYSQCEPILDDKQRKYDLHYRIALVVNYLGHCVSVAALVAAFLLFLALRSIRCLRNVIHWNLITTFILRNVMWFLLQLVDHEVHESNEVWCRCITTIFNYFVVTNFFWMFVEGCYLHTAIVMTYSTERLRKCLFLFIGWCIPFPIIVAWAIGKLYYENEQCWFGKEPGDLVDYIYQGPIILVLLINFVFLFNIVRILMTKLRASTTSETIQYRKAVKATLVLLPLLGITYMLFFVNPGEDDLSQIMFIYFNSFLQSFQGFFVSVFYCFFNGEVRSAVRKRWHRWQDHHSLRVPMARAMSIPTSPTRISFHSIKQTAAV
# Assay: cAMP functional assay for human CRHR2 (LANCE Ultra cAMP, TR-FRET)
# Assay type: cell-based
# Details: CHO-K1 cells expressing human CRHR2-alpha, agonist human urocortin2 at EC80, cAMP; read-out: IC50 against CRHR2
# How it was run: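 Antagonism measured in CHO-K1 cells stably expressing the receptor, serum-starved 7 h then cryopreserved. Thawed cells in HBSS buffer with 0.1% BSA, 0.5 mM IBMX, 5 mM Hepes pH 7.4 were preincubated with compound 30 min at 25° C, then stimulated 30 min with EC80 agonist: urocortin2 for CRHR2, CRF for CRHR1.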
row,pIC50,Compound
1,> 6.52,"O=C(N[C@H]1CC[C@H](Cn2c(=O)n(-c3ccn4cncc4c3)c3ccccc32)CC1)c1cc(Cl)cnc1C(F)F [Example 415, 5-chloro-2-(difluoromethyl)-N-((1r,4r)-4-((3-(imidazo[1,5-a]pyridin-7-yl)-2-oxo-2,3-dihydro-1H-benzo[d]imidazol-1-yl)methyl)cyclohexyl)nicotinamide]"
2,> 6.52,"Cn1ccc(-c2ccc(-n3c(=O)n(C[C@H]4CC[C@H](NC(=O)c5cc(Cl)cnc5C(F)F)CC4)c4ccccc43)cn2)n1 [Example 737, 5-chloro-2-(difluoromethyl)-N-((1r,4r)-4-((3-(6-(1-methyl-1H-pyrazol-3-yl)pyridin-3-yl)-2-oxo-2,3-dihydro-1H-benzo[d]imidazol-1-yl)methyl)cyclohexyl)nicotinamide]"
3,> 6.52,"N#Cc1cc(F)ccc1-n1c(=O)n(C[C@H]2CC[C@H](NC(=O)c3cc(Cl)cnc3C(F)F)CC2)c2ccccc21 [Example 627, 5-chloro-N-((1r,4r)-4-((3-(2-cyano-4-fluorophenyl)-2-oxo-2,3-dihydro-1H-benzo[d]imidazol-1-yl)methyl)cyclohexyl)-2-(difluoromethyl)nicotinamide]"
4,> 6.52,"O=C(N[C@H]1CC[C@H](Cn2c(=O)n(-c3ccc(N4CCNC4=O)nc3)c3ccccc32)CC1)c1cc(Cl)cnc1C(F)F [Example 523, 5-chloro-2-(difluoromethyl)-N-((1r,4r)-4-((2-oxo-3-(6-(2-oxoimidazolidin-1-yl)pyridin-3-yl)-2,3-dihydro-1H-benzo[d]imidazol-1-yl)methyl)cyclohexyl)nicotinamide]"
5,> 6.52,"O=C(N[C@H]1CC[C@H](Cn2c(=O)n(-c3cncc(-c4ncco4)c3)c3ccccc32)CC1)c1cc(Cl)cnc1C(F)F [Example 688, 5-chloro-2-(difluoromethyl)-N-((1r,4r)-4-((3-(5-(oxazol-2-yl)pyridin-3-yl)-2-oxo-2,3-dihydro-1H-benzo[d]imidazol-1-yl)methyl)cyclohexyl) nicotinamide]"
6,> 6.52,"O=C(N[C@H]1CC[C@H](Cn2c(=O)n(-c3ccc4ccncc4c3)c3ccccc32)CC1)c1cc(Cl)cnc1C(F)F [Example 423, 5-chloro-2-(difluoromethyl)-N-((1r,4r)-4-((3-(isoquinolin-7-yl)-2-oxo-2,3-dihydro-1H-benzo[d]imidazol-1-yl)methyl)cyclohexyl)nicotinamide]"
7,> 6.52,"Cc1c[nH]c2ncc(-n3c(=O)n(C[C@H]4CC[C@H](NC(=O)c5cc(Cl)cnc5C(F)F)CC4)c4ccccc43)cc12 [Example 456, 5-chloro-2-(difluoromethyl)-N-((1r,4r)-4-((3-(3-methyl-1H-pyrrolo[2,3-b]pyridin-5-yl)-2-oxo-2,3-dihydro-1H-benzo[d]imidazol-1-yl)methyl)cyclohexyl)nicotinamide]"
8,> 6.52,"Cc1nc2ncc(-n3c(=O)n(C[C@H]4CC[C@H](NC(=O)c5cc(Cl)cnc5C)CC4)c4ccccc43)cc2o1 [Example 356, 5-chloro-2-methyl-N-((1r,4r)-4-((3-(2-methyloxazolo[4,5-b]pyridin-6-yl)-2-oxo-2,3-dihydro-1H-benzo[d]imidazol-1-yl)methyl)cyclohexyl)nicotinamide]"
9,> 6.52,"Cc1cc2cc(-n3c(=O)n(C[C@H]4CC[C@H](NC(=O)c5cc(Cl)cnc5C(F)F)CC4)c4ccccc43)cnc2n1C [Example 674, 5-chloro-2-(difluoromethyl)-N-((1r,4r)-4-((3-(1,2-dimethyl-1H-pyrrolo[2,3-b]pyridin-5-yl)-2-oxo-2,3-dihydro-1H-benzo[d]imidazol-1-yl)methyl)cyclohexyl)nicotinamide]"

# Further lines, the compound ahead of its results:
row,Compound,pIC50
1,"COCCOc1ccc(-n2c(=O)n(C[C@H]3CC[C@H](NC(=O)c4cc(Cl)cnc4C)CC3)c3ccccc32)cn1 [Example 417, 5-chloro-N-((1r,4r)-4-((3-(6-(2-methoxyethoxy)pyridin-3-yl)-2-oxo-2,3-dihydro-1H-benzo[d]imidazol-1-yl)methyl)cyclohexyl)-2-methylnicotinamide]",> 6.52
2,"CCNC(=O)c1ccc(-n2c(=O)n(C[C@H]3CC[C@H](NC(=O)c4cc(Cl)cnc4C)CC3)c3ccccc32)cn1 [Example 182, 5-(3-(((1r,4r)-4-(5-chloro-2-methylnicotinamido)cyclo-hexyl)methyl)-2-oxo-2,3-dihydro-1H-benzo[d]imidazol-1-yl)-N-ethylpicolinamide]",> 6.52
3,"Cc1ncc(Cl)cc1C(=O)N[C@H]1CC[C@H](Cn2c(=O)n(-c3cccc(-n4ccnn4)c3)c3ccccc32)CC1 [Example 537, N-((1r,4r)-4-((3-(3-(1H-1,2,3-triazol-1-yl)phenyl)-2-oxo-2,3-dihydro-1H-benzo[d]imidazol-1-yl)methyl)cyclohexyl)-5-chloro-2-methylnicotinamide]",> 6.52
4,"CONC(=O)c1ccc(-n2c(=O)n(C[C@H]3CC[C@H](NC(=O)c4cc(Cl)cnc4C(F)(F)F)CC3)c3ccccc32)cn1 [Example 431, 5-(3-(((1r,4r)-4-(5-chloro-2-(trifluoromethyl)nicotinamido)cyclohexyl)methyl)-2-oxo-2,3-dihydro-1H-benzo[d]imidazol-1-yl)-N-methoxypicolinamide]",> 6.52
5,"Cc1ncc(Cl)cc1C(=O)N[C@H]1CC[C@H](Cn2c(=O)n(-c3cccc(-c4cnn(C)c4)c3)c3ccccc32)CC1 [Example 678, 5-chloro-2-methyl-N-((1r,4r)-4-((3-(3-(1-methyl-1H-pyrazol-4-yl)phenyl)-2-oxo-2,3-dihydro-1H-benzo[d]imidazol-1-yl)methyl)cyclohexyl)nicotinamide]",> 6.52
6,"Cc1ncc(Cl)cc1C(=O)N[C@H]1CC[C@H](Cn2c(=O)n(-c3ccc(Br)nc3)c3ccccc32)CC1 [Example 66, N((1r,4r)-4-((3-(6-bromopyridin-3-yl)-2-oxo-2,3-dihydro-1H-benzo[d]imidazol-1-yl)methyl)cyclohexyl)-5-chloro-2-methylnicotinamide]",> 6.52
7,"CN(C)c1ccc(-n2c(=O)n(C[C@H]3CC[C@H](NC(=O)c4cc(Cl)cnc4C(F)(F)F)CC3)c3ccccc32)cn1 [Example 333, 5-chloro-N-((1r,4r)-4-((3-(6-(dimethylamino)pyridin-3-yl)-2-oxo-2,3-dihydro-1H-benzo [d]imidazol-1-yl)methyl)cyclohexyl)-2-(trifluoromethyl) nicotinamide]",> 6.52
8,"Cc1ncc(Cl)cc1C(=O)N[C@H]1CC[C@H](Cn2c(=O)n(-c3ccc4c(c3)c(C)nn4C)c3ccccc32)CC1 [Example 213, 5-chloro-N-((1r,4r)-4-((3-(1,3-dimethyl-1H-indazol-5-yl)-2-oxo-2,3-dihydro-1H-benzo[d]imidazol-1-yl)methyl)cyclohexyl)-2-methylnicotinamide]",> 6.52
9,"Cc1ncc(Cl)cc1C(=O)N[C@H]1CC[C@H](Cn2c(=O)n(-c3ccc(-c4nccs4)cc3)c3ccccc32)CC1 [Example 518, 5-chloro-2-methyl-N-((1r,4r)-4-((2-oxo-3-(4-(thiazol-2-yl)phenyl)-2,3-dihydro-1H-benzo [d]imidazol-1-yl)methyl)cyclo-hexyl)nicotinamide]",> 6.52
10,"CCc1nc2ncc(-n3c(=O)n(C[C@H]4CC[C@H](NC(=O)c5cc(Cl)cnc5C)CC4)c4ccccc43)cc2o1 [Example 355, 5-chloro-N-((1r,4r)-4-((3-(2-ethyloxazolo[4,5-b]pyridin-6-yl)-2-oxo-2,3-dihydro-1H-benzo[d]imidazol-1-yl)methyl)cyclohexyl)-2-methylnicotinamide]",> 6.52
11,"Cc1ncc(Cl)cc1C(=O)N[C@H]1CC[C@H](Cn2c(=O)n(-c3ccc(C(=O)Nc4ccn(C)n4)nc3)c3ccccc32)CC1 [Example 173, 5-(3-(((1r,4r)-4-(5-chloro-2-methylnicotinamido)cyclohexyl)methyl)-2-oxo-2,3-dihydro-1H-benzo[d]imidazol-1-yl)-N-(1-methyl-1H-pyrazol-3-yl)picolinamide]",> 6.52
12,"Cc1ncc(Cl)cc1C(=O)N[C@H]1CC[C@H](Cn2c(=O)n(-c3ccc4c(c3)n(C)c(=O)n4C)c3ccccc32)CC1 [Example 169, 5-chloro-N-((1r,4r)-4-((1′,3′-dimethyl-2,2′-dioxo-2′,3′-dihydro-1′H-[1,5′-bibenzo [d]imidazol]-3(2H)-yl)methyl)cyclohexyl)-2-methylnicotinamide]",> 6.52
13,"O=C(Cn1c(=O)n(C[C@H]2CC[C@H](NC(=O)c3cc(Cl)ccc3C(F)(F)F)CC2)c2ccccc21)c1ccccc1 [Example 286, 5-chloro-N-((1r,4r)-4-((2-oxo-3-(2-oxo-2-phenylethyl)-2,3-dihydro-1H-benzo[d]imidazol-1-yl)methyl)cyclohexyl)-2-(trifluoromethyl)benzamide]",> 6.52
14,"CNc1cc(-n2c(=O)n(C[C@H]3CC[C@H](NC(=O)c4cc(Cl)cnc4C)CC3)c3ccccc32)ccn1 [Example 573, 5-chloro-2-methyl-N-((1r,4r)-4-((3-(2-(methylamino)pyridin-4-yl)-2-oxo-2,3-dihydro-1H-benzo[d]imidazol-1-yl)methyl)cyclohexyl)nicotinamide]",> 6.52
15,"O=C(N[C@H]1CC[C@H](Cn2c(=O)n(-c3cccc4cccnc34)c3ccccc32)CC1)c1cc(Cl)cnc1C(F)F [Example 419, 5-chloro-2-(difluoromethyl)-N-((1r,4r)-4-((2-oxo-3-(quinolin-8-yl)-2,3-dihydro-1H-benzo [d]imidazol-1-yl)methyl)cyclo-hexyl)nicotinamide]",> 6.52
